Reference: US8912227B1, “Bicyclic pyrrole derivatives useful as agonists of GPR120” (Janssen Pharmaceutica NV, priority 2014, dated 2014)

Columns and labels:
Type in all cases: cell-based
[1] = target: T1, Human GPR120 short form (Homo sapiens, UniProt Q5NUL3); test: Human GPR120 calcium flux assay, Procedure Calcium B; details: HEK-293 cells expressing human GPR120 short form, 4200 cells/well, FLIPR
T1 construct: expressed in transfected cells
T1 sequence (Q5NUL3 1-361): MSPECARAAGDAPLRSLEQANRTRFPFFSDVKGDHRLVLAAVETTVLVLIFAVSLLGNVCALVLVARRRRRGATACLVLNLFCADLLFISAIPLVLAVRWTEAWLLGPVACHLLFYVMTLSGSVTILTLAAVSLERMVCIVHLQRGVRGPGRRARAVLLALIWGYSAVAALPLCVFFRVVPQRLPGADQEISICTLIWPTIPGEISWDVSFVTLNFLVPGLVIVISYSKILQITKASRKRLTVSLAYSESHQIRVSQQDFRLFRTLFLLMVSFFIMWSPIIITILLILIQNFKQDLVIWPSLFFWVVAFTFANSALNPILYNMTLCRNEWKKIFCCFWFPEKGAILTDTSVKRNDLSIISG
Source text: (§1) This in vitro assay serves to assess test compound agonist activity against the short splice variant (SVS with Accession number NM_001195755.1 confirmed by sequencing data) of the GPR120 receptor. The Human Short splice variant #2 (NM_001195755.1) is missing an in-frame coding exon compared to variant 1 (the Human Long splice variant NM_181745.3), resulting in a shorter isoform (GPR120-S) lacking a 16 aa protein segment compared to isoform GPR120-L. The assay platform utilizes HEK-293 cells stably transfected to express the Human GPR120 short form. These cells are first loaded with the Ca^+2 sensitive dye, Fluo-4 NW. Upon stimulation, intracellular released Ca^+2 can bind to the dye and alter its fluorescence intensity. This increase in fluorescence signal, and thus the flux in intracellular [Ca^2+], is detected and quantitated by fluorescence imaging using a FLIPR reader. The effect of the agonist is measured as a function of concentration and used to calculate an EC50 based upon a response curve.
In this procedure 4200 cells/well were employed.
(§2) A Human GPR120 clone (Genbank accession number NM_001195755.1) was placed into the pcDNA3.1 mammalian expression vector carrying the neomycin resistance gene. A stable mammalian cell was generated by placing the above clone into a HEK293 background. Clonal cells responding to long chain fatty acids had expression levels of GPR120 confirmed by RT-qPCR. Human HEK-GPR120 cells were cultured in Dulbecco's Modified Eagle's Medium (DMEM)/F12 medium supplemented with 10% fetal bovine serum (FBS), 1% L-Glutamine and 1% penicillin/streptomycin and 0.5 mg/ml G-418. Cells were split 2 times a week to keep the cells in the log-phase growth.
(§3) In preparation for the assay, HEK cells stably transfected with Human GPR120 (2.5K cells per well in 25 uL growth medium) were seeded into 384-well plates and then incubated overnight (37° C., 5% CO2). The next day, the media was changed to 20 μl assay buffer and the cell starved for 1 h at 37° C. The dye loading solution (2× dye) was prepared using 10 ml assay buffer, 100 μl of 250 mM probenecid, 1 bottle of Component A, and 20 μl of dye in DMSO. Twenty μl of the 2× dye loading buffer was then added to each well. The plates were incubated at 37° C. for 30 min, then at room temperature for an additional 15 minutes, before performing the assay on FLIPR.
(§4) Test compounds were prepared in assay buffer (2 μl of test compound+198 μl assay buffer, final DMSO in assay plate is 0.2%) at the desired concentration, more particularly at 100 μM, 50 μM, 25 μM, 12.5 μM, 6.25 μM, 3.125 μM, 1.562 μM, 0.781 μM, 0.391 μM, 0.195 μM, 0.098 μM, 0.049 μM, 0.024 μM and 0.012 μM.
(§5) The assay was performed on a FLIPR plate reader using the following parameters. Baseline was read for 10 seconds at 1 sec intervals. The program was set to transfer 10 μL of ligand from compound plate to cell plate after baseline reading. Aspiration was executed at: 10 μl/sec speed, 4.6 μl height; Dispensing was executed at: 30 μl/sec speed, 45 μl height. After compound addition, each well was read for 300 sec, with measurements collected at 1 sec intervals.
(§6) The kinetic data from the FLIPR was based upon a 5 minute window for data collection. The fluorescence of each sample well was used for individual calculations of a normalized RFU value, which was defined as maximum response minus the minimum response. The normalized fluorescence reading (RFU) was calculated as follows: RFU=Fmax−Fmin
(§7) The data were fitted to a sigmoidal dose-response curve with a variable Hill slope (<2) using nonlinear regression with GraphPad Prism 5.0 to calculate the EC50 values. The Fitting Equation was: Y=Bottom+(Top−Bottom)/(1+10^((LogEC50−X)*HillSlope)), where X is the log of the concentration and Y is the response.

[2] = target: T1, Human GPR120 short form; test: Human GPR120 calcium flux assay, Procedure Calcium A; details: HEK-293 cells expressing human GPR120 short form, 2500 cells/well, FLIPR
Source text: as §1
In this procedure 2500 cells/well were employed.
as §2, §3, §4, §5, §6, §7

[3] = target: T2, long form of human GPR120 (Homo sapiens, UniProt Q5NUL3); test: Human GPR120 DiscoveRx PathHunter β-Arrestin assay, Procedure β-arrestin A; details: PathHunter CHO-K1 GPR120 β-Arrestin cell line, 3000 cells per well
T2 construct: host or cells: PathHunter CHO-K1 GPR120 β-Arrestin Cell Line
T2 sequence (Q5NUL3 1-377 isoform Q5NUL3-1): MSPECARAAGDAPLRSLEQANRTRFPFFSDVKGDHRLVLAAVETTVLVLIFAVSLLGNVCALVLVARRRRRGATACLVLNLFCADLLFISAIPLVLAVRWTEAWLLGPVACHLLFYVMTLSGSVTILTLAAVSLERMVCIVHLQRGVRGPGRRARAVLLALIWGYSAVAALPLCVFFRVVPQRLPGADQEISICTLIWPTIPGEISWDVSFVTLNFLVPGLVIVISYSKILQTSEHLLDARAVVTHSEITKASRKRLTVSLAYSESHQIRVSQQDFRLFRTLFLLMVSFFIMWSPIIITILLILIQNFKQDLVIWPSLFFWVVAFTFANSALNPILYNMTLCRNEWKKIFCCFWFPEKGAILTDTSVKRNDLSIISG
T2 sequence (P32121 whole entry partner): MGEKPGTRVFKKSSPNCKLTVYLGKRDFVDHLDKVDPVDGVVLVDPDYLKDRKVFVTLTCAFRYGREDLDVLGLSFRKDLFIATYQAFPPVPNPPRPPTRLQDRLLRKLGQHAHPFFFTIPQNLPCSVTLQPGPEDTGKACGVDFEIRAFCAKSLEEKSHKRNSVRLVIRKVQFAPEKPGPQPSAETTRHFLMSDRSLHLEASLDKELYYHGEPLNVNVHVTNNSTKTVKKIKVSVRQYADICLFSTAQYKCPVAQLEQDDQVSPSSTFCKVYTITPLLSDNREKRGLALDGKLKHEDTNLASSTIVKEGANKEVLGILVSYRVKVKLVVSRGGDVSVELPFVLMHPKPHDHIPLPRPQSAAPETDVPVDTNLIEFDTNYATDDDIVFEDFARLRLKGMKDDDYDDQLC
Source text: The binding of an agonist (medium/long chain fatty acids or small molecule agonists) to the G-protein-coupled receptor GPR120 activates phospholipase C, leading to release of intracellular Ca^+2 through the generation of inositol 1,4,5-trisphosphate (InsP3 or IP3). GPR120 activation can also trigger intracellular signaling via recruitment of β-Arrestin. In the present method, agonist-induced activation of the human GPR120 receptor is monitored through the use of PathHunter CHO-K1 GPR120 β-Arrestin Cell Line engineered by DiscoveRx, as detailed below. The cell lines are designed to co-express both the ProLink/Enzyme Donor (PK)-tagged GPCR and the Enzyme […] (EA)-tagged Beta-Arrestin fusion proteins. Upon GPR120 receptor stimulation/activation, the EA-tagged β-Arrestin portion is translocated to the tagged receptor, where the two enzyme fragments are brought within close proximity. Under these conditions, these fragments can interact and form an active Beta-gal enzyme complex through Enzyme Fragment Complementation (EFC). This active Beta-gal complex can enzymatically hydrolyse the substrate to produce a detectable light signal; therefore, activation as a function of agonist concentration can be expressed as an EC50 value to determine relative compound activities. This in vitro assay therefore serves to assess compound agonist activity of the GPR120.
In Procedure β-arrestin A, the cell used were PathHunter CHO-K1 GPR120 β-Arrestin Cell Line, expressing the long form of human GPR120 (Genbank accession number NM_181745), with 3000 cells per well.
The selected CHO-K1 GPR120 β-Arrestin cells were cultured in Ham's F12 media supplemented with 10% fetal bovine serum (FBS), 1% Glutamine, 1×p/s, 800 μg/ml G418 and 300 μg/ml Hygromycin B (for selection). Cell stocks were maintained and grown in a sub-confluent state using standard cell culture procedures. The day before the experiment, the cells were harvested with non-enzymatic cell dissociation buffer and re-suspended in complete growth media at the desired concentration. A Corning 384-plate was then seeded with the proper number of cells in a volume of 25 μL, per well. The seeded plates were incubated overnight at 37° C.
On the day of the experiment, the Assay Buffer containing (a) HBSS with Ca^++ and Mg^++, (b) 20 mM HEPES, and (c) 0.1% BSA stabilizer (pH 7.4) was prepared. The growth medium was gently removed from the cell plates and 20 μL of Assay Buffer added to each well. The plate was then incubated at 37° C. for 60 mins. Test compounds were serially diluted in Assay Buffer to desired concentrations (more particularly, to one or more of the following μM concentrations: 25 μM, 12.5 μM, 6.25 μM, 3.125 μM, 1.562 μM, 0.781 μM, 0.391 μM, 0.195 μM, 0.098 μM, 0.049 μM, 0.024 μM, 0.012 μM). Five μl of compound dilution was then added to each well and the plate incubated at 37° C. for 90 mins. The detection reagents were prepared according to the manufacture's instruction. Twelve μL of the detection reagents were added to each well and the plate incubated at room temperature for 60 mins.
The plates were read on an EnVision instrument, using Protocol name: Luminescence, Plate type: 384 Costar, Measurement height: 3 mm, Measurement time: 1 s, Aperture: 384 Plate aperture. The % activity relative to the positive control was calculated using the following equation:
as §7, with “% Activity values” for “data”, “were plotted versus the concentration of test compound and” for “were”, “a” for “a variable”, “slope=1 (fixed value)” for “slope (<2)”

EC50 [1] | EC50 [2] | EC50 [3] | Structure (SMILES)
164 nM | 1040 nM | 592 nM | Cc1c(CCC(=O)O)ccc(OCc2cccn2-c2ccc(Br)cc2)c1C [Compound 3, 3-(4-{[1-(4-Bromophenyl)-1H-pyrrol-2-yl]methoxy}-2,3-dimethylphenyl)propanoic acid]
368 nM | 435 nM | 130 nM | OCCCc1ccc(OCc2c(Br)ccn2-c2ccc(Cl)cc2)c(F)c1F [Compound 5, 3-(4-{[3-Bromo-1-(4-chlorophenyl)-1H-pyrrol-2-yl]methoxy}-2,3-difluorophenyl)propan-1-ol]
161 nM | 819 nM | 730 nM | O=C(O)CCc1ccc(OCc2c(Br)ccn2-c2ccc(Cl)cc2)c(F)c1F [Compound 6, 3-(4-{[3-Bromo-1-(4-chlorophenyl)-1H-pyrrol-2-yl]methoxy}-2,3-difluorophenyl)propanoic acid]
173 nM | 528 nM | 1000 nM | Cc1c(CCC(=O)O)ccc(OCc2c(Cl)ccn2-c2ccc(Cl)cc2)c1C [Compound 8, 3-(4-{[3-Chloro-1-(4-chlorophenyl)-1H-pyrrol-2-yl]methoxy}-2,3-dimethylphenyl)propanoic acid]
512 nM | 1440 nM | – | Cc1ccc(-n2ccc(C(F)(F)F)c2COc2ccc(CCCO)c(C)c2C)cc1 [Compound 45, 3-(2,3-dimethyl-4-[[1-(4-methylphenyl)-3-(trifluoromethyl)-1H-pyrrol-2-yl]methoxy]phenyl)propan-1-ol]
58 nM | 395 nM | – | COc1ccc(-n2ccc(C(F)(F)F)c2COc2ccc(CCCO)c(F)c2F)cn1 [Compound 50, 3-(2,3-difluoro-4-[[1-(6-methoxypyridin-3-yl)-3-(trifluoromethyl)-1H-pyrrol-2-yl]methoxy]phenyl)propan-1-ol]
197 nM | 675 nM | – | COc1ccc(-n2ccc(C(F)(F)F)c2COc2c(F)cc(CCC(=O)O)cc2F)cn1 [Compound 51, 3-(3,5-difluoro-4-[[1-(6-methoxypyridin-3-yl)-3-(trifluoromethyl)-1H-pyrrol-2-yl]methoxy]phenyl)propanoic acid]
71 nM | 285 nM | – | COc1ccc(-n2ccc(C(F)(F)F)c2COc2c(F)cc(CCCO)cc2F)cn1 [Compound 52, 3-(3,5-difluoro-4-[[1-(6-methoxypyridin-3-yl)-3-(trifluoromethyl)-1H-pyrrol-2-yl]methoxy]phenyl)propan-1-ol]
428 nM | 1990 nM | – | Cc1ccc(-n2ccc(C(F)(F)F)c2COc2ccc(CCC(=O)O)c(F)c2F)cn1 [Compound 53, 3-(2,3-Difluoro-4-{[1-(6-methylpyridin-3-yl)-3-(trifluoromethyl)-1H-pyrrol-2-yl]methoxy}phenyl)propanoic acid]
115 nM | 497 nM | – | CCc1ccc(-n2ccc(C(F)(F)F)c2COc2ccc(CCCO)c(F)c2F)cn1 [Compound 54, 3-(4-[[1-(6-ethylpyridin-3-yl)-3-(trifluoromethyl)-1H-pyrrol-2-yl]methoxy]-2,3-difluorophenyl)propan-1-ol]
34 nM | 215 nM | – | CCc1ccc(-n2ccc(C(F)(F)F)c2COc2c(F)cc(CCCO)cc2F)cn1 [Compound 55, 3-(4-[[1-(6-ethylpyridin-3-yl)-3-(trifluoromethyl)-1H-pyrrol-2-yl]methoxy]-3,5-difluorophenyl)propan-1-ol]
877 nM | 1410 nM | – | CCc1ccc(-n2ccc(C(F)(F)F)c2COc2c(F)cc(CCC(=O)O)cc2F)cn1 [Compound 56, 3-(4-[[1-(6-ethylpyridin-3-yl)-3-(trifluoromethyl)-1H-pyrrol-2-yl]methoxy]-3,5-difluorophenyl)propanoic acid]
77 nM | 840 nM | – | COc1ccc(-n2ccc(C(F)(F)F)c2COc2ccc(CCC(=O)O)c(F)c2F)cn1 [Compound 57, 3-(2,3-difluoro-4-((1-(6-methoxypyridin-3-yl)-3-(trifluoromethyl)-1H-pyrrol-2-yl)methoxy)phenyl)propanoic acid trifluoroacetic acid]
